We go through six compounds from patent US4668663A, “Renin inhibitors containing homophe^8” (Merck & Co., Inc., priority 1984, dated 1987).

Numbered stars: 1 amine (or outer) side, 2 acyl side, 3 side chain; on linkers, the order of the positions; unused ones are H or OH. Square brackets hold non-standard residues; d marks the D form. Peptide text beside a SMILES is read from it. * marks the point of attachment. ACHPA = O=C(C[C@H](O)[C@H](CC1CCCCC1)N[*:1])[*:2]; Sta = CC(C)C[C@H](N)[C@@H](O)CC(=O)O; hhPhe = N[C@@H](CCCc1ccccc1)C(=O)O; hPhe = N[C@@H](CCc1ccccc1)C(=O)O; Isovaleryl = CC(C)CC(=O)*; Boc = CC(C)(C)OC(=O)*

One test concerns the target T1, human kidney renin (Homo sapiens, UniProt P00797).
T1 construct: human kidney renin purified as described in Bangham; from tissue; host or cells: human kidney
T1 sequence (P00797 67-406): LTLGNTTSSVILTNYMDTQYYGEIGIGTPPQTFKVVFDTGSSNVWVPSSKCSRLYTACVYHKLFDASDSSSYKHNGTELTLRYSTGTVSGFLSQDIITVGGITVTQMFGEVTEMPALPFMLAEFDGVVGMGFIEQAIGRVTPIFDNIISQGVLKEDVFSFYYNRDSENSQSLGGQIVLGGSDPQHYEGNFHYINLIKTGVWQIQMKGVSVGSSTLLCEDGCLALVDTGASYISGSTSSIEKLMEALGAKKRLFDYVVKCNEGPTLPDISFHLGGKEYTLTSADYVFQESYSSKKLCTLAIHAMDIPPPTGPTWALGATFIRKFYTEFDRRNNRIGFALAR
Kind of test: Inhibition of purified human kidney renin. It counts as biochemical. The following applies: dissociation constant of the inhibited enzyme-inhibitor complex. The procedure: (§1) Assays were carried out in order to determine the inhibitory potency of the peptides of the present invention. One assay measured the inhibition of hog kidney renin, and was in accordance with the procedure described in Rich et al., J. Med. Chem. 23: 27, 1980, except that a pH of 7.3 was used. Another assay measured the inhibition of human kidney renin purified as described in Bangham, D. R., Robertson, I., Robinson, J. I. S., Robinson, C. J., and Tree, M., Clinical Science and Molecular Medicine, 48 (Supp. 2): 136s-159s (1975), and further purified by affinity chromatography on pepstatin-aminohexyl-Sepharase as described in Poe, M., Wu., J. K., Florance, J. R., Radkey, J. A., Bennett, C. D., and Hoogsteen, K., J. Biol. Chem. 258: 2209-2216 (1983). The assay was also in accordance with Poe et al. cited above. Further assays measured human plasma renin and dog plasma renin in accordance with procedures described in Boger et al, Nature, 303: 81-84 (1983).
Results expressed as KI values refer to the dissociation constant of the inhibited enzyme-inhibitor complex. This KI value was obtained as described above. Pepstatin was used as an active control.

The next test has as its target T2, dog plasma renin (Canis lupus familiaris, UniProt Q6DYE7).
T2 construct: Further assays measured human plasma renin and dog plasma renin; from tissue; host or cells: dog plasma
T2 sequence (Q6DYE7 66-403): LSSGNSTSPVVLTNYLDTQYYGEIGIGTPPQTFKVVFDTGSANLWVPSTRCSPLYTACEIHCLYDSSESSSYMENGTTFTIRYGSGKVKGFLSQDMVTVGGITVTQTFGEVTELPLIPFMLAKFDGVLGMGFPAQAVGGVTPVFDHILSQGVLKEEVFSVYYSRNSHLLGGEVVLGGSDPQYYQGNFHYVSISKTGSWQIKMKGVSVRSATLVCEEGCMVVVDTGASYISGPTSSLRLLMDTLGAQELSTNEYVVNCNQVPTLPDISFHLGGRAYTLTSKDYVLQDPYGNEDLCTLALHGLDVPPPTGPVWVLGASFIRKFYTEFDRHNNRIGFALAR
In words: Dog plasma renin assay. The following applies: read-out: Dog Plasma I50. It counts as biochemical. The protocol: as §1

A further test concerns the target T3, human plasma renin (Homo sapiens, UniProt P00797).
T3 construct: Further assays measured human plasma renin and dog plasma renin; from tissue; host or cells: human plasma
T3 sequence (P00797 67-406): T1 sequence (P00797 67-406)
Kind of test: Human plasma renin assay. It counts as biochemical. The note with it: read-out: Human Plasma I50. The procedure: as §1

In a further test the test system is hog renin. The note with it: after the injection of hog renin into nephrectomized rats (Gross et al.); cited from earlier work.

A word on the Ki: it is a measure of affinity in units of concentration, obtained from inhibition or displacement. A lower Ki goes with tighter binding. For `CC(C)C[C@H](NC(=O)C[C@H](O)[C@H](CC1CCCCC1)NC(=O)[C@H](Cc1c[nH]cn1)NC(=O)[C@H](CCc1ccccc1)NC(=O)OC(C)(C)C)C(N)=O` [BOC--HomoPhe--His--ACHPA--Leu--NH2, BocHPhe--His--ACHPA--Leu--NH2], the affinity at human kidney renin corresponds to a Ki of 1.17 nM. In addition, the IC50 is 100 nM at dog plasma renin and 3.9 nM on human plasma renin.

`COC(=O)[C@H](CC(C)C)NC(=O)C[C@H](O)[C@H](CC1CCCCC1)NC(=O)[C@H](Cc1c[nH]cn1)NC(=O)[C@H](CCc1ccccc1)NC(=O)OC(C)(C)C` [BOC--HomoPhe--His--ACHPA--Leu--OCH3, BocHPhe--His--ACHPA--Leu--OCH3] displayed an inhibitory constant (Ki) at human kidney renin of 0.98 nM.

As for `COC(=O)[C@H](Cc1ccccc1)NC(=O)[C@H](CC(C)C)NC(=O)C[C@H](O)[C@H](CC1CCCCC1)NC(=O)[C@H](Cc1c[nH]cn1)NC(=O)[C@H](CCc1ccccc1)NC(=O)OC(C)(C)C` [BOC--HomoPhe--His--ACHPA--Leu--Phe--OCH3, BocHPhe--His--ACHPA--Leu--Phe--OCH3] (Boc-[hPhe]H[ACHPA]LF-OMe), at human kidney renin, the Ki is 0.39 nM. Besides, the IC50 on dog plasma renin is 16 nM; at human plasma renin it was 4 nM.

As for `CC(C)CC(=O)N[C@@H](Cc1c[nH]cn1)C(=O)N1CCC[C@H]1C(=O)N[C@@H](CCCc1ccccc1)C(=O)N[C@@H](Cc1c[nH]cn1)C(=O)N[C@@H](CC(C)C)[C@@H](O)CC(=O)N[C@@H](CC(C)C)C(=O)N[C@@H](Cc1ccccc1)C(N)=O` [N^α -Isovaleryl-L-Histidyl-L-Prolyl-L-Bishomophenylalanyl-L-Histidyl-(3S,4S)-Statyl-L-Leucyl-L-Phenylalanyl Amide] (Isovaleryl-HP[hhPhe]H[Sta]LF-NH2), the Ki on human kidney renin worked out at 90 nM. Also, the IC50 at dog plasma renin stood at 320 nM.

Turning to `CC(C)CC(=O)N[C@@H](Cc1c[nH]cn1)C(=O)N1CCC[C@H]1C(=O)N[C@@H](CCc1ccccc1)C(=O)N[C@@H](Cc1c[nH]cn1)C(=O)N[C@@H](CC(C)C)[C@@H](O)CC(=O)N[C@@H](CC(C)C)C(=O)N[C@@H](Cc1ccccc1)C(N)=O` [N^α -Isovaleryl-L-Histidyl-L-Prolyl-L-Homophenylalanyl-L-Histidyl-(3S,4S)-Statyl-L-Leucyl-L-Phenylalanyl Amide] (Isovaleryl-HP[hPhe]H[Sta]LF-NH2), the Ki at human kidney renin is 0.33 nM. In addition, the IC50 is 4.5 nM on dog plasma renin and 0.14 nM at human plasma renin.

In the case of pepstatin, the “blood pressure in vivo” value with hog renin was “reduce blood pressure”.
